Results taken from patent US20060229324A1, “Quinazolin-4-one derivatives” (priority 2002, published 2006).

Assays:
[1] = biological target: human hematopoietic prostaglandin D2 synthase (Homo sapiens, UniProt O60760); assay: Inhibitory activity against spleen-type (hematopoietic) prostaglandin D2 synthase, [14C]PGH2 to PGD2, TLC; type: biochemical; details: for inhibition at 10 µM / inhibition at 30 µM: read-out: Inhibitory Ratio of Prostaglandin D2 (PGD2) Synthase (%)
Procedure: A buffer solution of 100 mM Tris (hydroxymethyl)aminomethane/HCl buffer (pH8.0) containing glutathione (0.1 mM) and human hematopoietic prostaglandin D2 synthase (adequate quantity) was preincubated at 25° C. for 5 minutes in the presence or absence of a test compound, and then 14C labeled prostaglandin H2 ([14C]PGH2) (10 μM) was added, and the buffer solution was further incubated at 25° C. for one minute. A mixture of ether, methanol, and citric acid was added to the reaction mixture, and the ether layer was developed on silica gel thin-layer chromatography (TLC) (eluent=ether: methanol: acetic acid=90:2:1), and the PGD2 produced was measured by exposure to an imaging plate. The enzyme inhibitory rates of test compounds were calculated assuming the amount of production of PGD2 without the test compound being 100%.

[2] = system: RBL-2H3, a rat basophilic leukemia cell to express hematopoietic prostaglandin D synthase; assay: Prostaglandin D2 production inhibition test using cells (A23187-induced, EIA); type: cell-based; details: RBL-2H3 cells, A23187 2.5 μM; for inhibition at 10 µM: Rattus norvegicus, RBL-2H3, Drug Concentration 10 μM, read-out: Inhibitory Ratio of Prostaglandin D2 (PGD2) Production (%); for Inhibitory Ratio of Prostaglandin D2 (PGD2) Production (%): Drug Concentration 10 μM
Procedure: RBL-2H3, a rat basophilic leukemia cell to express hematopoietic prostaglandin D synthase, was inoculated in a 24 well plate and incubated overnight. After replacement with a medium in the presence or absence of a test compound, preincubation was carried out at 37° C. for one hour. After washing of the cells with PBS(-), the medium was replaced with a Hepes buffer solution (pH7.4) in the presence or absence of the test compound, and incubation was continued at 37° C. for 15 minutes. Then, calcium ionophore (A23187) at a final concentration of 2.5 μM was added, and incubation was carried out at 37° C. for 15 minutes to induce the production of PGD2. The supernatant of the cells was collected, and the amount of PGD2 flowed out in the supernatant was measured by EIA kit by Cayman. The inhibitory ratio of the production of PGD2 by the test compound was calculated assuming the amount of PGD2 produced by A23187 in the absence of the test compound as being 100%.

Sequence of human hematopoietic prostaglandin D2 synthase (O60760 whole entry): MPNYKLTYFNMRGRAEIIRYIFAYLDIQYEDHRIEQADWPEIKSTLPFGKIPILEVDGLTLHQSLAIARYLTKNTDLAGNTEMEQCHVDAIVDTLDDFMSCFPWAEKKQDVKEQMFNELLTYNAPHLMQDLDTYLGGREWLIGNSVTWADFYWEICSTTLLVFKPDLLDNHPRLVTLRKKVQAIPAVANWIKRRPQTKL

Row | SMILES | inhibition at 10 µM ([1]; Drug Concentration 10 μM) [%] | inhibition at 30 µM ([1]; Drug Concentration 30 μM) [%] | further results
1 | Cc1nn(-c2ccccc2)c(O)c1/C=N/n1c(C)nc2ccccc2c1=O [Compound 1, 3-[(5-hydroxy-3-methyl-1-phenylpyrazol-4-yl)methylidene]-amino-2-methyl-3,4-dihydroquinazolin-4-one] | 50 | 76 | inhibition at 10 µM [2]: 26%
2 | CCOc1c(/C=N/n2c(C)nc3ccccc3c2=O)c(C)nn1-c1ccccc1 [Compound 3, 3-[(5-ethoxy-3-methyl-1-phenylpyrazol-4-yl)methylidene]amino-2-methyl-3,4-dihydroquinazolin-4-one] | 13 | – | inhibition at 10 µM [2]: 21%
3 | CCc1nn(-c2ccccc2)c(O)c1/C=N/n1c(C)nc2ccccc2c1=O [Compound 6, 3-[(3-ethyl-5-hydroxy-1-phenylpyrazol-4-yl)methylidene]-amino-2-methyl-3,4-dihydroquinazolin-4-one] | 18 | – | –
4 | Cc1nc2ccccc2c(=O)n1/N=C/c1c(C(F)(F)F)nn(-c2ccccc2)c1O [Compound 7, 3-[(5-hydroxy-1-phenyl-3-(trifluoromethyl)pyrazol-4-yl)-methylidene]amino-2-methyl-3,4-dihydroquinazolin-4-one] | 96 | 105 | inhibition at 10 µM [2]: 50%
5 | CCOC(=O)CCCc1nn(-c2ccccc2)c(O)c1C=Nn1c(C)nc2ccccc2c1=O [Compound 11, 3-({3-[3-(ethoxycarbonyl)propyl]-5-hydroxy-1-phenylpyrazol-4-yl}methylidene)amino-2-methyl-3,4-dihydroquinazolin-4-one] | 45 | – | –
6 | Cc1nc2ccccc2c(=O)n1N=Cc1c(CCCC(=O)O)nn(-c2ccccc2)c1O [Compound 12, 3-{[3-(3-carboxypropyl)-5-hydroxy-1-phenylpyrazol-4-yl]methylidene}amino-2-methyl-3,4-dihydroquinazolin-4-one] | 46 | – | –
7 | Cc1nn(C)c(O)c1/C=N/n1c(C)nc2ccccc2c1=O [Compound 14, 3-[(1,3-dimethyl-5-hydroxypyrazol-4-yl)methylidene]amino-2-methyl-3,4-dihydroquinazolin-4-one] | -2 | 27 | –
8 | Cc1nn(-c2ccccc2Cl)c(O)c1C=Nn1c(C)nc2ccccc2c1=O [Compound 15, 3-{[1-(2-chlorophenyl)-3-methyl-5-hydroxypyrazol-4-yl]-methylidene}amino-2-methyl-3,4-dihydroquinazolin-4-one] | 20 | 53 | –
9 | Cc1nn(-c2cccc(Cl)c2)c(O)c1C=Nn1c(C)nc2ccccc2c1=O [Compound 16, 3-{[1-(3-chlorophenyl)-3-methyl-5-hydroxypyrazol-4-yl]-methylidene}amino-2-methyl-3,4-dihydroquinazolin-4-one] | 50 | 81 | –
10 | Cc1ccc(-n2nc(C)c(C=Nn3c(C)nc4ccccc4c3=O)c2O)cc1 [Compound 18, 3-{[3-methyl-1-(4-methylphenyl)-5-hydroxypyrazol-4-yl]-methylidene}amino-2-methyl-3,4-dihydroquinazolin-4-one] | 23 | 37 | –
11 | COc1ccc(-n2nc(C)c(C=Nn3c(C)nc4ccccc4c3=O)c2O)cc1 [Compound 19, 3-{[3-methyl-1-(4-methoxyphenyl)-5-hydroxypyrazol-4-yl]-methylidene}amino-2-methyl-3,4-dihydroquinazolin-4-one] | 6 | 50 | –
12 | CCc1nc2ccccc2c(=O)n1/N=C/c1c(C)nn(-c2ccccc2)c1O [Compound 21] | 13 | 51 | –
13 | Cc1nn(-c2ccccc2)c(O)c1/C=N/n1c(C(C)C)nc2ccccc2c1=O [Compound 22, 3-[(5-hydroxy-3-methyl-1-phenylpyrazol-4-yl)methylidene]-amino-2-isopropyl-3,4-dihydroquinazolin-4-one] | 14 | 44 | –
14 | Cc1nn(-c2ccccc2)c(O)c1/C=N/n1c(-c2ccccc2)nc2ccccc2c1=O [Compound 24, 3-[(5-hydroxy-3-methyl-1-phenylpyrazol-4-yl)methylidene]-amino-2-phenyl-3,4-dihydroquinazolin-4-one] | – | – | inhibition at 10 µM [2]: 59%
15 | Cc1nn(-c2ccccc2)c(O)c1/C=N/n1c(C(C)(C)C)nc2ccccc2c1=O [Compound 25, 2-tert-butyl-3-[(5-hydroxy-3-methyl-1-phenylpyrazol-4-yl)methylidene]amino-3,4-dihydroquinazolin-4-one] | – | – | inhibition at 10 µM [2]: 47%
16 | Cc1nn(-c2ccccc2)c(O)c1/C=N/n1c(CO)nc2ccccc2c1=O [Compound 26, 3-[(5-hydroxy-3-methyl-1-phenylpyrazol-4-yl)methylidene]-amino-2-hydroxymethyl-3,4-dihydroquinazolin-4-one] | 86 | 71 | –
17 | COCc1nc2ccccc2c(=O)n1N=Cc1c(C)nn(-c2ccccc2)c1O [Compound 29, 3-[(5-hydroxy-3-methyl-1-phenylpyrazol-4-yl)methylidene]-amino-2-methoxymethyl-3,4-dihydroquinazolin-4-one] | – | – | Inhibitory Ratio of Prostaglandin D2 (PGD2) Synthase (%) ([1]; Drug Concentration 10 μM): 20%; Inhibitory Ratio of Prostaglandin D2 (PGD2) Synthase (%) ([1]; Drug Concentration 30 μM): 40%
18 | COc1cccc(-c2nc3ccccc3c(=O)n2N=Cc2c(C)nn(-c3ccccc3)c2O)c1 [Compound 31, 3-[(5-hydroxy-3-methyl-1-phenylpyrazol-4-yl)methylidene]-amino-2-(3-methoxyphenyl)-3,4-dihydroquinazolin-4-one] | – | – | Inhibitory Ratio of Prostaglandin D2 (PGD2) Synthase (%) ([1]; Drug Concentration 10 μM): 23%; Inhibitory Ratio of Prostaglandin D2 (PGD2) Synthase (%) ([1]; Drug Concentration 30 μM): 26%
19 | COc1ccccc1-c1nc2ccccc2c(=O)n1N=Cc1c(C)nn(-c2ccccc2)c1O [Compound 32, 3-[(5-hydroxy-3-methyl-1-phenylpyrazol-4-yl)methylidene]-amino-2-(2-methoxyphenyl)-3,4-dihydroquinazolin-4-one] | – | – | Inhibitory Ratio of Prostaglandin D2 (PGD2) Synthase (%) ([1]; Drug Concentration 10 μM): 12%; Inhibitory Ratio of Prostaglandin D2 (PGD2) Synthase (%) ([1]; Drug Concentration 30 μM): 15%
20 | Cc1nn(-c2ccccc2)c(O)c1C=NN1C(=O)c2ccccc2NC1CO (stereo not drawn) [Compound 40, 3-[(5-hydroxy-3-methyl-1-phenylpyrazol-4-yl)-methylidene]amino-2-hydroxymethyl-1,2,3,4-tetrahydroquinazolin-4-one] | – | – | inhibition at 10 µM [2]: 74%
21 | Cc1nn(-c2ccccc2)c(O)c1C=NN1C(=O)c2ccccc2NC1CO (stereo not drawn) [Compound 41, 3-[(5-hydroxy-3-methyl-1-phenylpyrazol-4-yl)-methylidene]amino-2-hydroxymethyl-1,2,3,4-tetrahydroquinazolin-4-one] | – | – | Inhibitory Ratio of Prostaglandin D2 (PGD2) Production (%) [2]: 80%
22 | Cc1nc2ccccc2c(=O)n1N=Cc1c(C23CC4CC(CC(C4)C2)C3)nn(-c2ccccc2)c1O [Compound 44] | – | – | Inhibitory Ratio of Prostaglandin D2 (PGD2) Production (%) [2]: 100%
23 | Cc1nc2ccccc2c(=O)n1N=Cc1c(-c2ccc(C(C)(C)C)cc2)nn(-c2ccccc2)c1O [Compound 45] | – | – | Inhibitory Ratio of Prostaglandin D2 (PGD2) Production (%) [2]: 100%

Further lines, with some results ahead:

Row | inhibition at 10 µM ([1]; Drug Concentration 10 μM) [%] | inhibition at 30 µM ([1]; Drug Concentration 30 μM) [%] | SMILES | further results
24 | 19 | 30 | O=c1c2ccccc2nc(CO)n1/N=C/c1c(C(F)(F)F)nn(-c2ccccc2)c1O [Compound 28] | –
25 | 27 | 61 | Cc1nn(-c2ccccc2)c(O)c1/C=N/n1c(C)nc2cccc(C)c2c1=O [Compound 33, 2,5-dimethyl-3-[(5-hydroxy-3-methyl-1-phenylpyrazol-4-yl)methylidene]amino-3,4-dihydroquinazolin-4-one] | –
26 | 71 | 84 | Cc1nn(-c2ccccc2)c(O)c1/C=N/n1c(C)nc2c(C)cccc2c1=O [Compound 34, 2,8-dimethyl-3-[(5-hydroxy-3-methyl-1-phenylpyrazol-4-yl)methylidene]amino-3,4-dihydroquinazolin-4-one] | –
27 | 15 | 68 | Cc1nn(-c2ccccc2)c(O)c1/C=N/n1c(C)nc2ccc(Cl)cc2c1=O [Compound 35, 6-chloro-3-[(5-hydroxy-3-methyl-1-phenylpyrazol-4-yl)methylidene]amino-2-methyl-3,4-dihydroquinazolin-4-one] | –
28 | 39 | 60 | Cc1nn(-c2ccccc2)c(O)c1/C=N/n1c(C)nc2cc(Cl)ccc2c1=O [Compound 36, 7-chloro-3-[(5-hydroxy-3-methyl-1-phenylpyrazol-4-yl)-methylidene]amino-2-methyl-3,4-dihydroquinazolin-4-one] | –
29 | 20 | 51 | COc1cc2nc(C)n(/N=C/c3c(C)nn(-c4ccccc4)c3O)c(=O)c2cc1OC [Compound 38, 6,7-dimethoxy-3-[(5-hydroxy-3-methyl-1-phenylpyrazol-4-yl)-methylidene]amino-2-methyl-3,4-dihydroquinazolin-4-one] | –
